“And” between values parts separate entries of the source, which are not always exact repeats. Identical values can stand only once. Inconclusive results and toxic doses are left out. The calls were made as follows: active = survival T/C of 150% or more; inactive = T/C below 125% in these data.
System: P388 leukemia ip, CD2F1 mice, survival T/C
Test: NCI In Vivo Anticancer Drug Screen. Data for tumor model P388 Leukemia (intraperitoneal) in CD2F1 (CDF1) mice
Details: endpoint: median survival time, higher = longer survival
Method in brief: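 Mice carrying the transplanted tumor received test compound or vehicle. Survival was recorded in each group, and the value is the treated-group measurement divided by that of the vehicle-treated control group.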

[1] = dose: 25.0 mg/kg/injection, schedule: Q01DX009 (ip), vehicle: distilled water + Tween-80
[2] = dose: 50.0 mg/kg/injection, schedule: Q01DX009 (ip), vehicle: distilled water + Tween-80
[3] = dose: 100.0 mg/kg/injection, schedule: Q01DX009 (ip), vehicle: distilled water + Tween-80
[4] = dose: 200.0 mg/kg/injection, schedule: Q01DX009 (ip), vehicle: distilled water + Tween-80
[5] = dose: 50.0 mg/kg/injection, schedule: Q01DX005 (ip), vehicle: Klucel (hydroxypropylcellulose) (HPC)
[6] = dose: 6.25 mg/kg/injection, schedule: Q01DX009 (ip), vehicle: saline
[7] = dose: 12.5 mg/kg/injection, schedule: Q01DX009 (ip), vehicle: saline
[8] = dose: 50.0 mg/kg/injection, schedule: Q04DX003 (ip), vehicle: saline with Tween-80
[9] = dose: 50.0 mg/kg/injection, schedule: Q01DX005 (ip), vehicle: saline with Tween-80
[10] = dose: 50.0 mg/kg/injection, schedule: Q01DX009 (ip), vehicle: saline with Tween-80
[11] = dose: 100.0 mg/kg/injection, schedule: Q01DX009 (ip), vehicle: saline with Tween-80
[12] = dose: 200.0 mg/kg/injection, schedule: Q01DX009 (ip), vehicle: saline with Tween-80
[13] = dose: 100.0 mg/kg/injection, schedule: Q04DX002 (ip), vehicle: saline with Tween-80
[14] = dose: 200.0 mg/kg/injection, schedule: Q04DX002 (ip), vehicle: saline with Tween-80

Measured: T/C

COc1cc(OC)c(C(C)=O)c(O)c1C
inactive: dose: 12.5 mg/kg/injection, schedule: Q01DX009 (ip), vehicle: distilled water + Tween-80 94 % of control | [1] 101 % of control | [2] 98 % of control | [3] 99 % of control | [4] 109 % of control | dose: 400.0 mg/kg/injection, schedule: Q01DX009 (ip), vehicle: distilled water + Tween-80 100 % of control

O=C(NP1(=O)NCc2ccccc2CN1)OC1CCCCC1
inactive: dose: 6.25 mg/kg/injection, schedule: Q01DX005 (ip), vehicle: Klucel (hydroxypropylcellulose) (HPC) 94 % of control | dose: 12.5 mg/kg/injection, schedule: Q01DX005 (ip), vehicle: Klucel (hydroxypropylcellulose) (HPC) 99 % of control | dose: 25.0 mg/kg/injection, schedule: Q01DX005 (ip), vehicle: Klucel (hydroxypropylcellulose) (HPC) 97 % of control

COC(=O)NC1C(C)OC(OC2C/C=C(/C)C3C=CC4C(OC5CC(OC6CC(O)C(OC7CC(O)C(OC)C(C)O7)C(C)O6)C(O)C(C)O5)C(C)CC(C)C4C3(C)/C(O)=C3\C(=O)OC4(CC(C)C(CO)=CC4/C=C\2C)C3=O)CC1(C)[N+](=O)[O-] (centres undefined)
inactive: [5] 118 % of control and 123 % of control

CC(C)OP(=O)(OC(C)C)c1ccncc1
inactive: dose: 100.0 mg/kg/injection, schedule: Q01DX001 (ip), vehicle: saline 99 % of control | dose: 200.0 mg/kg/injection, schedule: Q01DX001 (ip), vehicle: saline 96 % of control | dose: 400.0 mg/kg/injection, schedule: Q01DX001 (ip), vehicle: saline 101 % of control

O=C(NC1CCOC1=O)OCc1ccccc1 (centres undefined)
inactive: [1] 110 % of control | [2] 95 % of control | [3] 117 % of control | [4] 111 % of control

COC(=O)C1c2cc3c(c(O)c2CCC1(C)O)C(=O)c1c(O)cc2c(c1C3=O)OC1OC2(C)C(O)C(N(C)C)C1O (centres undefined)
inactive: [6] 117 % of control | [7] 120 % of control | dose: 25.0 mg/kg/injection, schedule: Q04DX003 (ip), vehicle: saline 115 % of control | dose: 50.0 mg/kg/injection, schedule: Q04DX003 (ip), vehicle: saline 114 % of control | dose: 100.0 mg/kg/injection, schedule: Q04DX003 (ip), vehicle: saline 115 % of control

O=C(Nc1ccc(C2=NCCCN2)cc1)c1ccc(C(=O)Nc2ccc(C3=NCCCN3)cc2)nc1
inactive: dose: 2.5 mg/kg/injection, schedule: Q01DX009 (ip), vehicle: saline 100 % of control | dose: 5.0 mg/kg/injection, schedule: Q04DX003 (ip), vehicle: saline 95 % of control | dose: 10.0 mg/kg/injection, schedule: Q04DX003 (ip), vehicle: saline 90 % of control

CO[C@@H]1C2=CC=CC=C[C@H]2n2c(=O)n(-c3ccccc3)c(=O)n21
inactive: [5] 102 % of control | dose: 100.0 mg/kg/injection, schedule: Q01DX005 (ip), vehicle: Klucel (hydroxypropylcellulose) (HPC) 103 % of control

COC1/C=C\C=C(/C)C(=O)NC2=CC(=O)C=C(C2=O)C(OC)C(C)CC(OC)C(OC)C(C)/C=C(/C)C1OC(N)=O (centres undefined)
inactive: dose: 3.0 mg/kg/injection, schedule: Q01DX009 (ip), vehicle: Klucel (hydroxypropylcellulose) (HPC) 92 % of control | dose: 6.0 mg/kg/injection, schedule: Q01DX009 (ip), vehicle: Klucel (hydroxypropylcellulose) (HPC) 101 % of control

CCCCC(CC)CCC(C)O (centres undefined)
inactive: [8] 100 % of control | dose: 100.0 mg/kg/injection, schedule: Q04DX003 (ip), vehicle: saline with Tween-80 109 % of control

CN1CCc2[nH]c3ccccc3c2C1
inactive: dose: 100.0 mg/kg/injection, schedule: Q04DX002 (ip), vehicle: Klucel (hydroxypropylcellulose) (HPC) 100 % of control | dose: 200.0 mg/kg/injection, schedule: Q04DX002 (ip), vehicle: Klucel (hydroxypropylcellulose) (HPC) 102 % of control

Nc1nc2ccc(NCc3ccc(C(=O)NC(CCC(=O)O)C(=O)O)cc3)cc2c(=O)[nH]1 (centres undefined)
inactive: dose: 6.25 mg/kg/injection, schedule: Q01DX005 (ip), vehicle: saline with Tween-80 108 % of control | dose: 12.5 mg/kg/injection, schedule: Q01DX005 (ip), vehicle: saline with Tween-80 108 % of control | dose: 25.0 mg/kg/injection, schedule: Q01DX005 (ip), vehicle: saline with Tween-80 103 % of control and 108 % of control | [9] 113 % of control and 117 % of control

CCOC(=O)c1cnc2cc(C(F)(F)F)ccc2c1Nc1ccc2c(c1)OCO2
inactive: dose: 60.0 mg/kg/injection, schedule: Q01DX005 (ip), vehicle: Klucel (hydroxypropylcellulose) (HPC) 100 % of control | dose: 120.0 mg/kg/injection, schedule: Q01DX005 (ip), vehicle: Klucel (hydroxypropylcellulose) (HPC) 102 % of control | dose: 240.0 mg/kg/injection, schedule: Q01DX005 (ip), vehicle: Klucel (hydroxypropylcellulose) (HPC) 98 % of control

CCCCc1c(O)c2c(=O)[nH]c(C)nc2oc1=O
inactive: dose: 3.75 mg/kg/injection, schedule: Q01DX005 (ip), vehicle: Klucel (hydroxypropylcellulose) (HPC) 96 % of control | dose: 7.5 mg/kg/injection, schedule: Q01DX005 (ip), vehicle: Klucel (hydroxypropylcellulose) (HPC) 95 % of control | dose: 15.0 mg/kg/injection, schedule: Q01DX005 (ip), vehicle: Klucel (hydroxypropylcellulose) (HPC) 92 % of control

Cc1ccc(S(=O)(=O)N/N=C/c2cccc([N+](=O)[O-])c2O)cc1
inactive: [9] 101 % of control | dose: 100.0 mg/kg/injection, schedule: Q01DX005 (ip), vehicle: saline with Tween-80 104 % of control | dose: 200.0 mg/kg/injection, schedule: Q01DX005 (ip), vehicle: saline with Tween-80 93 % of control

CCCCCCCCCC[N+]1(CC)CCCCC1
inactive: dose: 3.12 mg/kg/injection, schedule: Q01DX009 (ip), vehicle: saline 119 % of control | [6] 121 % of control | [7] 105 % of control

Cc1cc2c(C(C)C)c(O)c(O)cc2c(O)c1-c1c(C)cc2c(C(C)C)c(O)c(O)cc2c1O
inactive: dose: 12.5 mg/kg/injection, schedule: Q04DX003 (ip), vehicle: saline with Tween-80 95 % of control | dose: 25.0 mg/kg/injection, schedule: Q04DX003 (ip), vehicle: saline with Tween-80 100 % of control | [8] 104 % of control

CC1(C)CC2(OC2c2ccc([N+](=O)[O-])cc2)C(=O)c2ccccc21 (centres undefined)
inactive: dose: 0.78 mg/kg/injection, schedule: Q01DX009 (ip), vehicle: Klucel (hydroxypropylcellulose) (HPC) 87 % of control | dose: 1.56 mg/kg/injection, schedule: Q01DX009 (ip), vehicle: Klucel (hydroxypropylcellulose) (HPC) 88 % of control | dose: 3.13 mg/kg/injection, schedule: Q01DX009 (ip), vehicle: Klucel (hydroxypropylcellulose) (HPC) 90 % of control | [10] 100 % of control | [11] 90 % of control | [12] 95 % of control | dose: 400.0 mg/kg/injection, schedule: Q01DX009 (ip), vehicle: Klucel (hydroxypropylcellulose) (HPC) 93 % of control

C(=N\Nc1nnc2c(n1)[nH]c1ccccc12)/c1ccccc1
inactive: [13] 89 % of control | [14] 90 % of control | dose: 400.0 mg/kg/injection, schedule: Q04DX002 (ip), vehicle: saline with Tween-80 98 % of control

Nc1[nH]nc(Nc2cccc(Cl)c2Cl)c1C(=O)c1cccs1
inactive: dose: 12.5 mg/kg/injection, schedule: Q01DX009 (ip), vehicle: saline with Tween-80 101 % of control | dose: 25.0 mg/kg/injection, schedule: Q01DX009 (ip), vehicle: saline with Tween-80 99 % of control | [10] 99 % of control and 100 % of control | [11] 96 % of control | [12] 98 % of control

CC(C)C[N+]1(Cc2ccc(Cl)c(Cl)c2)CCOCC1
inactive: [13] 99 % of control | [14] 108 % of control

— PubChem BioAssay AID330 (DTP/NCI, 2004)
